The numbers were not newly measured in patent US20110223258A1 (priority 2008, published 2011), which cites them from elsewhere.

Molecules are shown by their SMILES.

For this series the following is noted: aqueous solution.

For `O=P([O-])(O)O.O=P([O-])(O)O.O=P([O-])(O)O.[Fe+3]` [Fe(H2PO4)3, iron(III) dihydrogen phosphate], the Stability in solution entry is listed as “decomposes in the solution as a result of hydrolysis”.
